Marks after values point to notes of the source that are not given here.
Assays:
[1] = Phase 3 randomized cross over study: 5-day decitabine AUC equivalence, oral ASTX727 vs IV decitabine; assay type: in vivo; conditions: human, plasma, 20 mg/m2; Phase 3 primary analysis, paired population N=123; IV decitabine 20 mg/m^2; read-out: Decitabine 5-day AUC0-24, IV DEC Geo. LSM
From the text: The Primary Endpoint PK Analysis Set is used to calculate decitabine 5-day cumulative AUC0-t exposures after administration of the solid dosage form. The following assumptions are used: • 1) Steady state is reached on Day 2 of dosing with the solid dosage form; • 2) Based on steady state achievement on Day 2, decitabine AUC0-t from Day 2 and Day 5 is representative of daily AUC0-t on Days 2 through Day 5 in a putative 5-day dosing with the solid dosage form.
Therefore, to calculate total 5-day oral decitabine AUC0-t exposures using PK data from 3 days sequential PK sampling, Day 1 AUC0-t (first solid dosage form dose) is added to (Day 2 AUC0-t+Day 5 AUC0-t)×2. If AUC0-t on Day 2 is not available, it is replaced by AUC0-t on Day 5; the converse is also true.
If AUC0-t on Day 1 is not available, it is replaced by AUC0-t on Day 5; the converse is also true. Note that t=24 hrs, so AUC0-t is AUC0-24.
Phase 3 was a randomized cross over design where MDS and CMML patients eligible to receive decitabine were randomized to Sequence A where they received ASTX727 in Cycle 1 then IV decitabine in Cycle 2, or Sequence B with the reverse order. All patients received ASTX727 from Cycle 3 onwards to assess long term efficacy and safety. 118 evaluable patients were needed to show AUC equivalence between oral and IV administrations. […]

[2] = ASTX727 Phase 1 dose escalation study: plasma decitabine pharmacokinetics (AUC); assay type: in vivo, human; conditions: for AUC(0-t): human, plasma
Description: The ASTX727 Phase 1 study was a dose escalation designed to establish the recommended doses of cedazuridine and decitabine likely to achieve AUC equivalence with standard dose decitabine IV (decitabine 20 mg/m^2 IV). FIG. 1 provides an overview of the study design. In Cycle 1, each patient received a cohort-defined dose of oral decitabine on day −3, a 1-h intravenous infusion of decitabine 20 mg/m^2 on day 1, and cohort-defined doses of oral decitabine plus cedazuridine on days 2-5. In Cycles 2 and beyond, the oral decitabine and cedazuridine were given on days 1-5. The dose of cedazuridine was escalated first and decitabine was escalated once CDA inhibition by cedazuridine approached the maximum effect. Only one drug was escalated per cohort. Fixed doses were given without adjustment for bodyweight or body surface area. Days −3, 1, 2, and 5 for decitabine included a full-day pharmacokinetic analysis. The starting dose was 20 mg for oral decitabine and 40 mg for cedazuridine (a human equivalent dose with approximately 100 times greater safety margin than the no-observed adverse effect level in cynomolgus monkeys). […] Dose-limiting toxicity was defined as a grade 4 hematologic toxicity or grade 3 lasting more than 14 days and unrelated to the underlying disease. […] Dose escalation for patients who previously received a lower dose was allowed at the discretion of the investigator if the patient had tolerated the originally assigned doses.
The pharmacokinetic profile of decitabine was characterized through analysis of plasma treated with EDTA (edetic acid) by validated liquid chromatography-tandem mass spectrometry, with tetrahydrouridine (Santa Cruz Biotechnology, Dallas, TX) for stabilization and with a linear assay range of 0.5-100 ng/mL for decitabine. Serial plasma samples (from before dose administration until 24 h after administration) were collected on days −3, 1, 2, and 5 (also immediately before dose administration on days 3 and 4) during the first cycle. Specifically, pharmacokinetic samples were obtained before dose administration and 0.25 h, 0.5 h, 1.0 h (for IV only 1.083 h), 1.5 h, 2 h, 3 h, 4 h, 6 h, 8 h, and 24 h after the dose.

MDS and CMML patients = test: Phase 2 safety: related adverse events Grade ≥3 in ≥5% of patients; assay type: in vivo, human; conditions: Phase 2, Cycle 1 or 2; IV DEC N = 75, ASTX727 N = 78
Description: The ASTX727 Phase 2 study was a randomized cross over design of decitabine 20 mg/m^2 IV daily (for 5 days) vs. oral decitabine/cedazuridine once daily (for 5 days) in Cycle 1 with patients crossing over to the other drug in Cycle 2 (See FIG. 3). From Cycle 3 onward, all patients continued on oral decitabine/cedazuridine once daily (for 5 days), each cycle every 28 days, until progression.
Changes in DNA methylation after treatment were expressed as relative change (%), calculated as: 100×([methylation on a given post-treatment day]−[baseline methylation]. Adverse event assessments through physical examinations and laboratory monitoring (haematology, metabolic profile, and liver enzymes) were done before treatment on day 1 of each cycle (weekly for haematology in the first two cycles). While on treatment, patients were assessed for adverse events and clinical response, including haematology, metabolic profile, liver enzymes, directed physical examinations, vital signs, transfusion records, and dosing records. Once off treatment, patients were followed up for survival and transformation to acute myeloid leukemia. Dose reduction or delays were permitted at the investigators' discretion to allow for recovery from drug-related myelosuppression.

[3] = ASTX727 Phase 2 randomized cross over dose confirmation: plasma decitabine 5-day AUC, oral vs IV; assay type: in vivo; conditions: human, read-out: Decitabine 5-day AUC0-t, IV Geo. LSM

AUC(0-t) [1]: 0.865 µg·h/mL
5-days Total AUC0-t, IV (N = 41), geometric mean ([2]; IV decitabine 20 mg/m^2, total IV population of all cohorts (N = 41)): 821^d h · ng/ml
AUC(0-t) ([2]; iv, 20 mg/m2, Cohort 1, N=5 (extreme outlier excluded), IV decitabine 20 mg/m^2, day 1, read-out: AUC0-t by day, IV D1, Geometric Mean (gCV %)): 0.138 µg·h/mL
AUC(0-t) ([2]; iv, 20 mg/m2, Cohort 2, N=6, IV decitabine 20 mg/m^2, day 1, read-out: AUC0-t by day, IV D1, Geometric Mean (gCV %)): 0.17 µg·h/mL
AUC(0-t) ([2]; iv, 20 mg/m2, Cohort 3, N=6, IV decitabine 20 mg/m^2, day 1, read-out: AUC0-t by day, IV D1, Geometric Mean (gCV %)): 0.192 µg·h/mL
AUC(0-t) ([2]; iv, 20 mg/m2, Cohort 4, N=6, IV decitabine 20 mg/m^2, day 1, read-out: AUC0-t by day, IV D1, Geometric Mean (gCV %)): 0.153 µg·h/mL
AUC(0-t) ([2]; iv, 20 mg/m2, Cohort 5, IV decitabine 20 mg/m^2, day 1, IV data from 18 patients (one extreme outlier excluded), read-out: AUC0-t by day, IV D1, Geometric Mean (gCV %)): 0.166 µg·h/mL
AUC(0-t) ([2]; iv, 20 mg/m^2, Cohort 1, N=6, IV decitabine 20 mg/m^2 1-h infusion, day 1, read-out: AUC0-t by day, IV D1, Geometric Mean (gCV %)): 0.159 µg·h/mL
AUC(0-t) ([2]; po, 20 mg, Cohort 1, N=5 (extreme outlier excluded), oral DEC 20 mg alone, day −3, read-out: AUC0-t by day, D −3 (DEC alone), Geometric Mean (gCV %)): 0.0079 µg·h/mL
AUC(0-t) ([2]; po, 20 mg, Cohort 1, N=6, oral DEC 20 mg alone, day −3, plasma decitabine, read-out: AUC0-t by day, D −3 (DEC alone), Geometric Mean (gCV %)): 0.0107 µg·h/mL
AUC(0-t) ([2]; po, 20 mg, Cohort 2, N=6, oral DEC 20 mg alone, day −3, read-out: AUC0-t by day, D −3 (DEC alone), Geometric Mean (gCV %)): 0.00749 µg·h/mL
AUC(0-t) ([2]; po, 20 mg, Cohort 3, N=6, oral DEC 20 mg alone, day −3, read-out: AUC0-t by day, D −3 (DEC alone), Geometric Mean (gCV %)): 0.0079 µg·h/mL
AUC(0-t) ([2]; po, 30 mg, Cohort 5, N=19, oral DEC 30 mg alone, day −3, read-out: AUC0-t by day, D −3 (DEC alone), Geometric Mean (gCV %)): 0.0153 µg·h/mL
AUC(0-t) ([2]; po, 40 mg, Cohort 4, N=6, oral DEC 40 mg alone, day −3, read-out: AUC0-t by day, D −3 (DEC alone), Geometric Mean (gCV %)): 0.0298 µg·h/mL
AUC(0-t) ([3]; 20 mg/m^2, Phase 2 FDC tablet stage, N=24, 20 mg/m^2 IV infusion (1 h) of decitabine): 0.745 µg·h/mL
AUC(0-t) ([3]; 20 mg/m^2, Phase 2 capsule stage, N=40, 20 mg/m^2 IV infusion (1 h) of decitabine): 0.803 µg·h/mL
SMILES: Nc1ncn([C@H]2C[C@H](O)[C@@H](CO)O2)c(=O)n1 [IV DEC, 5-aza-2′-deoxycytidine]
Anemia, related AE Grade ≥3 (MDS and CMML patients): 4 (5.3%) n (%)
Any Grade ≥3 Related AEs (MDS and CMML patients): 24 (32%) n (%)
Febrile Neutropenia, related AE Grade ≥3 (MDS and CMML patients): 4 (5.3%) n (%)
Leukopenia, related AE Grade ≥3 (MDS and CMML patients): 6 (8.0%) n (%)
Neutropenia, related AE Grade ≥3 (MDS and CMML patients): 16 (21.3%) n (%)
Thrombocytopenia, related AE Grade ≥3 (MDS and CMML patients): 11 (14.7%) n (%)

Reference: patent US11963971B2, “Combination decitabine and cedazuridine solid oral dosage forms” (Otsuka Pharmaceutical Co., Ltd., priority 2020, dated 2024)
